Values joined by “and” are separate entries in the source; they are usually repeats but may differ in a detail not shown here. Equal values may be shown once. “Also recorded” adds a separate entry of the source. Read-outs that look alike come from different tables or passages of the source. Marks after values point to notes of the source that are not given here.
Legend:
[1] = parameters: method as in PMID 23374081; settings: blended fruit juice containing orange, pineapple, and kiwi; cited from earlier work
[2] = system: Caco-2-HT29-MTX-E12 coculture cell monolayers; assay: Intestinal absorption assay (Papp, apical to basolateral) across Caco-2-HT29-MTX-E12 coculture on Transwell; format: in vitro ADME, human; settings: for In vitro permeability (in words): comparison among AA, EA, OA, Ca^2+; for Apparent permeability (Papp): 10:1 dilution, applied 2 h
Procedure: (§1) Caco-2 and HT-29-MTX-E12 cells were seeded on Costar Transwell® plate inserts in a ratio of 9:1 and at a density of 1,09,000 cells/cm^2 and 12,120 cells/cm^2, respectively. Cells were cultured in growth media at 37°C and 5% CO2 for 21 days to facilitate cell differentiation and formation of an intact monolayer. During the 21-day differentiation period, growth media was removed and replaced with fresh media every 2–3 days. Cell differentiation of an intact monolayer was monitored by measuring the transepithelial electrical resistance (TEER) of the cell monolayer in an apical–basolateral direction. TEER was measured using the Millicell-ERS Voltohmmeter from Millipore (Burlington, MA, USA). TEER is a measurement of resistance and is a sensitive and convenient method to assess and the integrity of the cell monolayer. The values obtained are determined by cellular resistance (between apical and basolateral membrane) and the paracellular resistance (tight junctions). TEER values above 300 Ω.cm^2 are indicative of differentiated Caco-2-HT29-MTX-E12 cells and an intact monolayer ([17]).
(§2) In vitro absorption was performed by following the procedure described by Osborne and colleagues ([18]). On the day of the intestinal absorption assay, TEER was measured and growth media was replaced with HBSS in the apical and basolateral chambers for 2 h to enhance uptake of the applied digesta. For the absorption study, intestinal digesta samples (I30, I60, and I120) were diluted 10:1 with HBSS. […] In the apical chamber, 200 μL diluted intestinal digesta (I30, I60, and I120) were applied for 120 min. HBSS (600 μL) was added in the basolateral chamber. After 2 h, all apical and basolateral samples were collected and stored at−80°C. HBSS was replaced with growth media in all chambers with TEER values measured again immediately after the assay. TEER was also recorded 24 and 48 h after the assay. Intestinal absorption studies were performed in duplicate. The rate of EA, AA, OA, and Ca^2+ movement across the transwell® membrane was determined by calculating the apparent permeability coefficient (Papp) in cm/s as follows ([19]):
(§3) ΔQ/Δt is steady-state appearance rate of compound in receiver (basolateral) compartment (μmol/s).
(§4) A is the surface area of the filter (i.e., 0.33 cm^2).
(§5) C0 is the initial concentration in the donor (apical) compartment (μM).
(§6) Intestinal absorption of AA, EA, OA, and Ca^2+ from digested T. ferdinandiana powder was measured using Caco-2-HT29-MTX-E12 coculture cell monolayers. Intestinal digesta samples that were collected at different time points (I30, I60, and I120) throughout the in vitro digestion were applied to the coculture transwell model for 120 min before apical and basolateral samples were collected. The amount of AA, EA, OA, and Ca^2+ was measured in the digesta initially applied to the apical chamber of the transwell model, and in samples collected from the basolateral chamber. Apparent permeability (Papp) was calculated with statistical significance observed (p ≤ 0.05) in Papp values obtained from the applied I30, I60, and I120 digesta samples (Figure 4 and Table 2).

[3] = as above; format: in vitro ADME, human; settings: human, 10:1 dilution, applied 2 h, read-out: Apparent permeability (Papp)
Procedure: as §1, §2, §3, §4, §5, §6

[4] = INFOGEST static in vitro gastrointestinal digestion, bioaccessibility from T. ferdinandiana freeze-dried powder; format: in vitro ADME
Procedure: Freeze-dried T. ferdinandiana powder (0.5 g) was mixed with 20 mL milli-Q water, vortexed, and used as the initial starting material for in vitro gastrointestinal digestion based on the INFOGEST model detailed in Section INFOGEST Gastrointestinal in vitro Digestion ([14]). Digestions were performed in duplicate with samples collected at various time points throughout the digestion process. Gastric digesta samples were collected at t = 0 (G0) and t = 60 (G60) min into the gastric phase, and intestinal digesta were collected at t = 30 (I30), t = 60 (I60), and t = 120 (I120) min into the intestinal digestion phase.
A harmonized in vitro gastrointestinal digestion method developed in the COST action INFOGEST network was applied ([14]). Oral phase was not included in this experiment as T. ferdinandiana fruit is currently marketed as freeze-dried powder that would not undergo a substantial oral phase or may be incorporated into a nutraceutical product in pill, capsule, or beverage form. The digestive fluids (simulated salivary fluid (SSF), simulated gastric fluid (SGF), and simulated intestinal fluid (SIF)) were prepared according to the INFOGEST method ([14]). The activity of all enzymes was also measured according to the protocols described in the INFOGEST method ([14]) to ensure standardized application. […] Porcine pancreatin was used at 16 units/mL trypsin activity. […] Figure 1 provides an overview of the digestion protocols and conditions employed in the study. At the end of each digestion steps, samples were collected and snap-frozen (−80°C) to stop the digestion. Pefabloc at a concentration of 0.1 M was recommended to stop intestinal digestion; however, considering the cytotoxic nature of Pefabloc at a concentration ≥ 0.25 mM, Pefabloc was not applied to avoid future cell toxicity.
The samples were centrifuged and filtered through 0.22 μm syringe filters prior to analysis. An Acquity UHPLC system (Waters Corp., Milford, MA, USA), equipped with a Waters Acquity UHPLC photodiode array (PDA) detection system, was used to carry out the analysis. Empower™ software (Waters Corp., USA) was used to process and quantify peaks after recording the signals. A Waters Acquity HSS T3 analytical column (100 mm × 2.1 mm, 1.8 μm particle size) (Waters Corp., USA), with an isocratic mobile phase of 0.1% aqueous (v/v) formic acid at a flow rate of 250 μL/min, was used with an injection volume of 2 μL. The absorbance was measured at room temperature at 245 nm.
T. ferdinandiana digesta and intestinal absorption samples were analyzed for EA. All samples were centrifuged and filtered through 0.22 μm PTFE membrane filters (Millipore, CA, USA) before injection into the chromatographic system. Samples were analyzed on a Waters Acquity UHPLC system (Waters Corp., Milford, MA, USA) equipped with PDA detector. A Waters BEH Shield RP18 Column 130 °A, 1.7 μm (100 mm X 2.1 mm) from Waters Corporation (Milford, Massachusetts, USA) was used. Column temperature was maintained at 40°C, the injection volume was 2 μL, PDA spectrum was scanned from 200 to 400 nm with a rate of 2.5 Hz, and detection was carried out at 254 nm. […] Formic acid 0.1% was used for mobile phase A (Milli-Q water) and phase B (acetonitrile) at a flow rate of 0.4 mL/min.
T. ferdinandiana digesta and intestinal absorption samples were cleaned up with a SPE step ([20]) for OA analysis. Mixed reversed phase-[…] anion exchange sorbent Strata® SAX (55 μm, 70 Å, 500 mg/3 mL) was purchased from Phenomenex (Torrance, CA, USA) and used in this study. The SPE process was maintained through an Analytichem VAC ELUT SPS 24 Port Vacuum Manifold from Agilent Varian (Santa Clara, CA, USA). The SPE columns were sequentially conditioned with 3 mL of methanol and 3 mL of milli-Q water. Digesta and intestinal absorption samples at a volume of 1 mL dripped through the cartridges by gravity (with a flow rate of about 1 mL/min). The cartridges were washed with 3 mL of water and 3 mL of methanol.

[5] = system: Caco-2 cell barrier; parameters: method as in PMID 27738446; settings: reported previously; cited from earlier work
[6] = system: HepG2 cells; parameters: method as in PMID 19101929; settings: cited from earlier work
[7] = Gastric t = 0 (G0), released from T. ferdinandiana fruit matrix
[8] = Intestinal t = 30 min (I30), pancreatin and bile
[9] = Gastric t = 60 min (G60), pepsin
[10] = intestinal phase, time point not stated

| Papp at 120 min ([3]; I30 digesta) | Papp at 120 min ([3]; I60 digesta) | Papp at 120 min ([3]; I120 digesta) | Bioaccessibility [4, 7] | Bioaccessibility [4, 8] | Bioaccessibility ([4]; Intestinal t = 60 min (I60)) | Bioaccessibility ([4]; Intestinal t = 120 min (I120)) | Bioaccessibility [4, 9] | Bioaccessibility [4, 10] | Apparent permeability (Papp) ([2]; I30 digesta) | Apparent permeability (Papp) ([2]; I60 digesta) | Apparent permeability (Papp) ([2]; I120 digesta) | Bioaccessibility ([4]; Gastric t = 0 (G0), released from T. ferdinandiana fruit matrix, listed as calcium) | Structure (SMILES) | Recovery after gastric digestion [1] | In vitro permeability (in words) [2] | Papp [5] | Time at which absorption was detected after application [6] | Time of peak absorption [6] |
| --- | --- | --- | --- | --- | --- | --- | --- | --- | --- | --- | --- | --- | --- | --- | --- | --- | --- | --- |
| 41 ± 5 ×10⁻⁶ cm/s | 19 ± 0.4 ×10⁻⁶ cm/s | 10 ± 0.1 ×10⁻⁶ cm/s | 93% and 93 ± 2^a % | 93% and 93 ± 7^a % | 100% and 100 ± 1^a % | 79% and 79 ± 5^a % | – | – | – | – | – | – | O=C1O[C@H]([C@@H](O)CO)C(O)=C1O [AA, ascorbic acid] | 83% | low apparent permeability; also recorded: in vitro permeability was low | – | – | – |
| 796 ± 7 ×10⁻⁶ cm/s | 394 ± 4 ×10⁻⁶ cm/s | 201 ± 2 ×10⁻⁶ cm/s | 33% and 33 ± 1^b % | 49% and 49 ± 3^b % | 49% and 49 ± 1^b % | 48% and 48 ± 1^b % | 42 ± 1^b % | 48% | – | – | – | – | O=c1oc2c(O)c(O)cc3c(=O)oc4c(O)c(O)cc1c4c23 [EA, ellagic acid] | – | highest permeability | 0.347 ± 0.018 /10^−6 cm/s | 15 min | 4 h |
| – | – | – | 67 ± 4^c % | 90% and 90^a ± 0.0% | 90% and 90 ± 1^c % | 79% and 79 ± 2^a % | 69 ± 1^a % | 90% | 60 ± 6^a x 10^−6 cm/s | 56 ± 7^a x 10^−6 cm/s | 50 ± 9^a x 10^−6 cm/s | 67% | [Ca+2] [Ca^2+, calcium] | – | – | – | – | – |
| 258 ± 5 ×10⁻⁶ cm/s | 231 ± 1 ×10⁻⁶ cm/s | 150 ± 7 ×10⁻⁶ cm/s | 72% and 72 ± 7^c % | 98% and 99^a ± 0.0% | 98 ± 3^a % | 89% and 89 ± 1^a % | 85 ± 2^a % | 98% | – | – | – | – | O=C(O)C(=O)O [OA, oxalic acid] | – | – | – | – | – |
